Assay: Human HepG2 cell viability assay in 384 well format
Assay type: toxicity, cell-based
Set-up: dose 125 nL, time 70.5 hour; concentration not given beside the values
Details: HepG2 cells, read-out: Inhibition

SMILES	cytotoxicity at 70.5 h
COCC(C)NS(=O)(=O)c1ccc(Br)cn1 (configuration not stated)	-11.1%
Cc1ccccc1-c1cc(NC(=O)Cn2ccccc2=O)n(C)n1	-0.508%
CCC(CCO)NS(=O)(=O)c1ccc(Br)cn1 (configuration not stated)	-0.693%
Cc1csc(C2(NCc3nc(-c4ccco4)oc3C)CCCC2)n1	22.8%
C[C@H](CCO)NS(=O)(=O)c1ccc(Br)cn1	-6.95%
Cn1cc(N2CCC(Nc3ccc4nccnc4n3)C2=O)cn1 (configuration not stated)	-10.5%
O=C(c1ncoc1-c1ccco1)N1CCCN(c2nccs2)CC1	-2.69%
CCCC1(CNCc2ncc[nH]2)CCC1	-8.95%
Cc1ccc(-c2nc(CN(Cc3cccs3)C3CCS(=O)(=O)C3)cs2)o1 (configuration not stated)	13.7%
CC(NCCCc1cnn(C)c1)c1ccc(Br)s1 (configuration not stated)	-1.02%
CCN1C[C@H]2N(c3ncccn3)CCC[C@@]2(C(=O)NCC2CC2)C1	0.391%
CO[C@H]1CO[C@@]2(CCCN(C(=O)C3CC=CC3)C2)C1	-0.276%
Cc1nccc(NCc2cncc3c2CCN(CCN(C)C)C3)n1	3.96%
CO[C@@H]1CO[C@@]2(CCCN(C(=O)N3CCCC3)C2)C1	0.448%
O=C(c1ccccc1)N1CCO[C@@H]2CN(Cc3ccc[nH]3)C[C@@H]2C1	1.61%
CC(C)n1c2ccccc2c2c1cc(C(=O)NC1CC1)n2C(=O)N(C)C	1.81%
CC(=O)N1CCc2nc(-c3ccc(F)cc3)nc(NC(C)C)c2CC1	7.5%
COCC(=O)N1CCc2nc(C)nc(NC(C)C)c2CC1	-6.06%
Cc1nc2c(c(NC(C)C)n1)CCN(C(=O)CCO)CC2	-14.4%
CC(=O)N1CCO[C@@H]2CN(S(=O)(=O)C3CC3)CC[C@@H]2C1	-0.0787%
O=C(c1ccnn1-c1ccc2ccccn12)N1CCCC1	-10.6%
CS(=O)(=O)N1C[C@@H]2COC[C@]2(COCC(=O)N2CCCC2)C1	-5.68%

SMILES	cytotoxicity at 70.5 h
O=C(c1ccnn1-c1ccc2ccccn12)N1CCOCC1	-3.59%
O=C(NC1CC2(CCN(CCO)CC2)Oc2ccccc21)c1csnn1 (configuration not stated)	-0.338%
Cn1nc(C#N)c2c1CN(C(=O)c1nc[nH]n1)CCC2	-1.6%
Cc1ccc(N2CCCC3(CCN(C(=O)C4CC4)C3)C2)nn1 (configuration not stated)	-3.58%
COCCN1CCO[C@@H]2CN(C(=O)c3ccc4[nH]ccc4c3)CC[C@@H]2C1	-11.1%
CNC(=O)[C@H]1C[C@@H]2CN(C(=O)c3cnc(C)cn3)C[C@@H]2N1C	-8.55%
CCOCC1CN(S(=O)(=O)CC)Cc2nn(C)cc21 (configuration not stated)	-8.48%
CCN1C[C@@H]2CN(C(=O)c3cccn3C)C[C@@H]2C1=O	8.28%
c1cnc(N2CCOCC3(CCN(c4cnccn4)CC3)C2)nc1	-8.75%
COc1cc(F)ccc1CC(=O)N1CC[C@H]2C(=O)NCCO[C@H]2C1	0.421%
O=C(CC(F)(F)F)N1CCC2(CCCN(c3nncs3)C2)C1 (configuration not stated)	-3.95%
CN1Cc2ccccc2CC2(CCN(C(=O)[C@H]3CCCO3)CC2)C1=O	-4.74%
COc1cc(N2CCC3(C2)CN(c2cccnc2)C(=O)CN3C)ncn1 (configuration not stated)	-4.78%
CSc1cccc(NC(=O)N2CCC3(CCC(=O)N(C4CC4)C3)CC2)c1	-9.9%
Cc1ccccc1C1(O)CCN(C(=O)CCc2cn3ccccc3n2)C1 (configuration not stated)	17.9%
c1cc(-c2cc(C3CCN(Cc4cncnc4)C3)ccn2)ccn1 (configuration not stated)	0.319%
COc1cc(OC)cc(-n2ccnc2-c2cc3n(n2)CCNC3)c1	19.3%
CCN(CC)C(=O)Cn1cc(C(=O)NCCc2scnc2C)nn1	-1.44%
CSc1ccccc1CN1CCn2nc(CNC(=O)N(C)C)cc2C1	-8.7%
O=C1O[C@@H]2CN(c3ccccn3)C[C@@H]2N1CCCc1ccc(F)cc1	-14.3%
CCc1ccc(CN(C)c2ccc(-c3nc(COC)no3)cn2)nc1	-4.59%
CCCn1ncnc1C(C)NC(=O)C1CCN(C(=O)C2CC2)CC1 (configuration not stated)	-3.95%

SMILES	cytotoxicity at 70.5 h
COc1ccnc(N2C[C@@H]3CC[C@H](C2)N(CC2CCC2)C3=O)n1	-0.827%
COCCc1nc(CSc2ccncc2)n(C)n1	1.99%
CC(C)n1cc(-c2nc3cc(S(=O)(=O)N4CCCC4)ccc3n2C)cn1	-25.1%
Cc1nc2c(c(N(C)C)n1)CCN(C(=O)c1ccc(N)nc1)C2	-7.14%
CCN(CCOC)C(=O)c1ccc2c(c1)nc(N1CC[C@H](O)C1)n2C	-8.67%
CCc1ncc2c(n1)CN(c1nccc(C3CCCC3)n1)C2	-10.9%
Cc1n[nH]c(C)c1Sc1ccccc1NC(=O)N1CCN(C)CC1	50.2%
CSCCC(=O)N1CCc2c(ncnc2N2CCOCC2)C1	-2.83%
Cn1c(CN2CCN(c3cccnc3)CC2)cc2ccccc21	-4.28%
Cc1nc(N(C)C)ncc1C(=O)NCCc1csc(-c2cnccn2)n1	-6.1%
CSCCCN1C(=O)CC[C@H]2CN(Cc3ncc[nH]3)CC[C@H]21	-5.45%
COc1cccc(C(C(=O)O)N2CCC(Cn3cccn3)CC2)c1OC (configuration not stated)	-9.71%
Cc1cnc(N2CCC(c3ccncc3)CC2)nc1-c1ccnn1C	-12.9%
COc1ccccc1OC1CCN(c2ccncc2)CC1	12.9%
O=C(Cc1ccc(O)c(F)c1)N1CCC2(CCNCC2)CC1	-1.13%
CCn1cc(CN2CCCC(COc3ccc(F)cc3)C2)cn1 (configuration not stated)	12.1%
CCC(NC1CCN(C(=O)c2ccccc2)CC1)c1cccs1 (configuration not stated)	-16.9%
CN1CCC(n2nc(Cc3cccs3)nc2-c2ccncc2)CC1	2.89%
Cc1cc(C(=O)N2CCC3(CC2)c2nc[nH]c2CCN3CC(C)C)no1	7%
CN(C)C1CCCN(C(=O)c2cccc(-c3ncc[nH]3)c2)CC1 (configuration not stated)	-1.63%
CNC(=O)C1CCCN(c2nc(-c3ccco3)nc3c2CCNCC3)C1 (configuration not stated)	-4.06%
O=C(c1ccc2nccnc2c1)N1C[C@@H](CN2CCCC2)[C@@H](CO)C1	-5.28%

SMILES	cytotoxicity at 70.5 h
CN1CCN(c2ncccn2)CC12CCC(=O)N(CC1CC1)CC2 (configuration not stated)	9.35%
CN(Cc1ccoc1)C(=O)C1(Oc2ccc(Cl)cc2)CCNCC1	-6.31%
CCC(=O)N1CCN(C(=O)c2cn3ccsc3n2)[C@H]2CS(=O)(=O)C[C@H]21	-13.8%
CN1CC2(CCCN(C(=O)Cc3cccc(O)c3)C2)OC1=O (configuration not stated)	-6.74%
CC(C)N(C)C(=O)C1CCC(=O)N(CCc2cccc(F)c2)C1 (configuration not stated)	-3.96%
Cc1[nH]c(-c2ccccc2)nc1C(=O)N1CCC(O)(CO)CC1	17.9%
CCC1CC(=O)NCc2nc3sc(C)cn3c21 (configuration not stated)	-4.35%
CC(C)N(C)C(=O)c1coc(CN2CCN(c3ccccc3F)CC2)n1	-3.77%
CC(C)Nc1ccnc(-c2ccnc3c2ccn3C)n1	-9.28%
COCCN1CC(C(=O)N(C)Cc2cc(-c3cccnc3)no2)CC1=O (configuration not stated)	-11.9%
CC(C)NC(=O)[C@@H]1C[C@H]2NCC[C@H]2O1	-7.3%
CNC(=O)NCC1CCC2(CCN(C(=O)c3ccccn3)CC2)CO1 (configuration not stated)	1.5%
O=C(c1ccc[nH]1)N1CCCn2c(CNC3CCC3)nnc2C1	-4.17%
CC(C)N1CCO[C@@H]2CN(C(=O)NCc3ccccc3)CC[C@@H]2C1	28.5%
O=C(c1ccco1)N1CCC2(CCCN(c3ncccn3)C2)C1 (configuration not stated)	11%
Cc1occc1C(=O)N1CCC2(CCCN(c3ncc(F)cn3)C2)C1 (configuration not stated)	-1.51%
Cc1ccc(C(=O)N2CCC3(CCCN(c4ncc(F)cn4)C3)C2)cn1 (configuration not stated)	-5.14%
CCOCCN1C[C@@H]2CCCO[C@@H]2[C@H](NC(=O)c2cnoc2C)C1	-6.18%
C1CC(N2C[C@@H]3COC[C@]3(COCC3CCOCC3)C2)C1	-1.94%
Cc1oncc1C(=O)N[C@@H]1CN(Cc2ccoc2)C[C@@H]2CCCO[C@@H]21	2.7%
Cc1cnc(CNC(=O)[C@@]23CCO[C@@H]2CCNC3)cn1	0.0687%
Cc1oncc1C(=O)N[C@@H]1CN(CC2CC2)C[C@@H]2CCCO[C@@H]21	-10.1%

SMILES	cytotoxicity at 70.5 h
CN(C)C1CC2(CCN(C(=O)NC3CC3)CC2)c2ccccc21 (configuration not stated)	-7.23%
Cc1noc([C@@H]2C[C@H]3CN(Cc4ccc5c(c4)OCO5)C[C@H]3O2)n1	-16.8%
CCO[C@@H]1CC[C@H]2[C@H]1OCCN2CCOCc1ccccc1	-17.9%
CCO[C@H]1CC[C@H]2[C@H]1OCCN2CCOCc1ccccc1	-11.1%
CN1CCO[C@@H]2CN(C(=O)c3ccc4[nH]ccc4c3)CC[C@@H]2C1	-10.4%
CCN1CCO[C@@H]2CN(C(=O)c3ccc4[nH]ccc4c3)CC[C@@H]2C1	-7.4%
O=C(NC1CC1)[C@@H]1CCO[C@@H]2CCN(CC3CCC3)C[C@H]21	-2.8%
COCCN1CCOCC12CCN(c1nccs1)CC2	-20.8%
O=C(NCc1cnc2n1CCN(Cc1ccoc1)C2)c1ccno1	-0.405%
Cc1cnc(N2C[C@H]3CCCC(N(C)Cc4ccccn4)[C@H]3C2)nc1 (some centres not stated)	-9.85%
Cc1ccc(CN2CCCC3(CCCCN3S(C)(=O)=O)C2)s1 (configuration not stated)	19.2%
NCC1CCC2(CCN(C(=O)c3ccccn3)CC2)CO1 (configuration not stated)	2.02%
CNC(=O)CN1CCC2(CCCN(CC3CCOC3)C2)CC1 (configuration not stated)	-6.27%
COCCN1C[C@@H]2CN(Cc3ccc(C)s3)CCC[C@]2(C(=O)O)C1	11.4%
Cc1ccc(CN2CCOC3(CCN(CC4CCOC4)CC3)C2)cc1 (configuration not stated)	-1.57%
CNC(=O)[C@H]1C[C@@H]2CN(C(=O)c3ccc(C)nc3)C[C@@H]2N1C(C)C	-9.38%
Cc1cccc(CN2CCOC3(CCCN(CC(=O)N(C)C)C3)C2)n1 (configuration not stated)	-5.53%
O=C(NCc1ccccn1)[C@@]12CCO[C@@H]1CCN(Cc1ccccn1)C2	-5.8%
CN1CCN(Cc2cccnc2)C(=O)C12CCN(C1CCOC1)CC2 (configuration not stated)	-5.29%
